Data taken from ChEMBL document CHEMBL5108067, “Discovery of Potent OTUB1/USP8 Dual Inhibitors Targeting Proteostasis in Non-Small-Cell Lung Cancer” (J Med Chem, 2022).

Assays:
[1] = biological target: T1, Ubiquitin thioesterase OTUB1 (Homo sapiens, UniProt Q96FW1); assay: Destabilization of N-terminal His-6 tagged OTUB1 (40 to 271 residues) (unknown origin) expressed in Escherichia coli BL21 (DE3) cells assessed as reduction in melting temperature at 200 uM measured for 2 hrs in presence of dithiothreitol by SYPRO orange dye based thermal shift assay
[2] = test system: A549; assay: Antiproliferative activity against human A549 cells harboring KRAS mutant incubated for 72 hrs by MTT assay; format: functional, cell-based; details: A549, 72 h
[3] = test system: EBC-1; assay: Antiproliferative activity against human EBC-1 cells harboring wild type KRAS incubated for 72 hrs by MTT assay; format: functional, cell-based; details: EBC-1, 72 h
[4] = test system: NCI-H23; assay: Antiproliferative activity against human NCI-H23 cells harboring KRAS mutant incubated for 72 hrs by MTT assay; format: functional, cell-based; details: NCI-H23, 72 h
[5] = biological target: T1, Ubiquitin thioesterase OTUB1; assay: Inhibition of N-terminal His-6 tagged OTUB1 (40 to 271 residues) (unknown origin) expressed in Escherichia coli BL21 (DE3) cells at 100 nM using Ub-Rho measured after 0.5 to 3 hrs by fluorescence based Plate reader method relative to control; details: time 0.5-3 hrs, values are per cent of control
[6] = biological target: T2, Ubiquitin carboxyl-terminal hydrolase 8 (Homo sapiens) (UniProt P40818); assay: Inhibition of N-terminal His-6 tagged USP8 (734 to 1110 residues) (unknown origin) expressed in Escherichia coli BL21 (DE3) cells at 100 nM measured after 3 hrs by fluorescence based Plate reader method relative to control; details: values are per cent of control
T2 sequence (whole entry): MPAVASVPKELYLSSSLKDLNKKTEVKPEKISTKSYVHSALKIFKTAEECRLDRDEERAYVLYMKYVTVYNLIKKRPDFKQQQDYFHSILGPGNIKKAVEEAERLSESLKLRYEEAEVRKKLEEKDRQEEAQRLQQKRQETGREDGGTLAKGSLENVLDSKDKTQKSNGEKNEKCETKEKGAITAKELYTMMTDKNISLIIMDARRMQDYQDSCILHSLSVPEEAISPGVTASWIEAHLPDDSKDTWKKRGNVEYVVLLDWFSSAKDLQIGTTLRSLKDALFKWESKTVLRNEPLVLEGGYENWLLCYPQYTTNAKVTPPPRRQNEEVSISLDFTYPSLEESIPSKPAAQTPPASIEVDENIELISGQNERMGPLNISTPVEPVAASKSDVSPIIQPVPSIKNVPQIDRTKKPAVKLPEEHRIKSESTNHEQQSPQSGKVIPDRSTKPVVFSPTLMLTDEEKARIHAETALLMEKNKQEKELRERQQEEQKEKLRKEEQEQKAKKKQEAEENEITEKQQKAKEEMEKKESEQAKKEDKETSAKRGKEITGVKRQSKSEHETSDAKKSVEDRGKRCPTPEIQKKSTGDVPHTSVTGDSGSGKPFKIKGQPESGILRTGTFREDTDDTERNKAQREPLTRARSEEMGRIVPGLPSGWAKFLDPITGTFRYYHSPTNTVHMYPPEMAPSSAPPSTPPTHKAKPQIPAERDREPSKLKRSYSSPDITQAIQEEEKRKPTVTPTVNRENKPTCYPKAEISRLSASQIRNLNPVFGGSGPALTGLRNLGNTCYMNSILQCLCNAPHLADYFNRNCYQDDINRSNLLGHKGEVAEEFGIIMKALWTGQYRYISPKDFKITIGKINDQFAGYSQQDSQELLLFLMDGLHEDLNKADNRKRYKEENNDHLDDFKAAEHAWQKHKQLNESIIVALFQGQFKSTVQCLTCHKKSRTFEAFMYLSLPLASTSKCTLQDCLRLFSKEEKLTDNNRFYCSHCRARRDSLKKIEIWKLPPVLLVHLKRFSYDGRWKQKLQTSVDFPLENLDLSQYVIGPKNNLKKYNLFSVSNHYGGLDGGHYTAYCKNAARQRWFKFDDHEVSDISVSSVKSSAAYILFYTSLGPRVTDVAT

[7] = test system: NCI-H1975; assay: Antiproliferative activity against human NCI-H1975 cells harboring wild type KRAS incubated for 72 hrs by MTT assay; format: functional, cell-based; details: NCI-H1975, 72 h
[8] = biological target: Ataxin-3 (Homo sapiens, UniProt P54252); assay: Inhibition of Ataxin-3 (unknown origin) using Ub-Rho measured after 0.5 to 3 hrs
[9] = biological target: Ubiquitin carboxyl-terminal hydrolase 7 (Homo sapiens, UniProt Q93009); assay: Inhibition of USP7 (unknown origin) using Ub-Rho measured after 0.5 to 3 hrs
[10] = biological target: T3, Ubiquitin carboxyl-terminal hydrolase 36 (Homo sapiens, UniProt Q9P275); assay: Inhibition of USP36 (unknown origin) using Ub-Rho measured after 0.5 to 3 hrs
T3 sequence (Q9P275 whole entry): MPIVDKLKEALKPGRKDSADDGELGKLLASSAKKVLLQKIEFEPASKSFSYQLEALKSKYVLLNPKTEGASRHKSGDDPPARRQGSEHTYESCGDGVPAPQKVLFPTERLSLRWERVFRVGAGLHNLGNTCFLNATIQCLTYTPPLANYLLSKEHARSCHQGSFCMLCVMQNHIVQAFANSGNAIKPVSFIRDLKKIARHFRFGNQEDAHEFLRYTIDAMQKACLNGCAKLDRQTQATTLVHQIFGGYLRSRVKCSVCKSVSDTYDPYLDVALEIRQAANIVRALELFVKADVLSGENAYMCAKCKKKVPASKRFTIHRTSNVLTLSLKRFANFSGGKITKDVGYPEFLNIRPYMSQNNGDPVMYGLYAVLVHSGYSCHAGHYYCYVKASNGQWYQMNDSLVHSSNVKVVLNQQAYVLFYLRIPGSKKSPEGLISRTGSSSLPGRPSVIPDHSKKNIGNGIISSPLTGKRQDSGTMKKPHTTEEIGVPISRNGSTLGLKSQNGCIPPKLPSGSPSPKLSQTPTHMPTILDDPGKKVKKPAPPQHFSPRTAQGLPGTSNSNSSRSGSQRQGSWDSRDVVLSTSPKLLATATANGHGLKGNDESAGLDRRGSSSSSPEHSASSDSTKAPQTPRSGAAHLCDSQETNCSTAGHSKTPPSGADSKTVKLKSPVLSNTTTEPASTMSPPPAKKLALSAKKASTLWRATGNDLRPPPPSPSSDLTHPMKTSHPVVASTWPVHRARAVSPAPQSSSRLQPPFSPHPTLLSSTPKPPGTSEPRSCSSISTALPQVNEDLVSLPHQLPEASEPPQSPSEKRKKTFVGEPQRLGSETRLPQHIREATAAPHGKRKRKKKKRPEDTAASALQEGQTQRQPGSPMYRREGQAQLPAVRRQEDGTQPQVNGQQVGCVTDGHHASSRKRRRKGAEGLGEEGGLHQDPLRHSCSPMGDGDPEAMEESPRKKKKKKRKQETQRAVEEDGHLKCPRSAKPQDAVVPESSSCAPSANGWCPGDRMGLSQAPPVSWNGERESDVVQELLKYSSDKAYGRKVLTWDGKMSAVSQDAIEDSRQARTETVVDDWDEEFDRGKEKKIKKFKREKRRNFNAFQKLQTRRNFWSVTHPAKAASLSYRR

Ubiquitin carboxyl-terminal hydrolase 7, sequence (Q93009 whole entry): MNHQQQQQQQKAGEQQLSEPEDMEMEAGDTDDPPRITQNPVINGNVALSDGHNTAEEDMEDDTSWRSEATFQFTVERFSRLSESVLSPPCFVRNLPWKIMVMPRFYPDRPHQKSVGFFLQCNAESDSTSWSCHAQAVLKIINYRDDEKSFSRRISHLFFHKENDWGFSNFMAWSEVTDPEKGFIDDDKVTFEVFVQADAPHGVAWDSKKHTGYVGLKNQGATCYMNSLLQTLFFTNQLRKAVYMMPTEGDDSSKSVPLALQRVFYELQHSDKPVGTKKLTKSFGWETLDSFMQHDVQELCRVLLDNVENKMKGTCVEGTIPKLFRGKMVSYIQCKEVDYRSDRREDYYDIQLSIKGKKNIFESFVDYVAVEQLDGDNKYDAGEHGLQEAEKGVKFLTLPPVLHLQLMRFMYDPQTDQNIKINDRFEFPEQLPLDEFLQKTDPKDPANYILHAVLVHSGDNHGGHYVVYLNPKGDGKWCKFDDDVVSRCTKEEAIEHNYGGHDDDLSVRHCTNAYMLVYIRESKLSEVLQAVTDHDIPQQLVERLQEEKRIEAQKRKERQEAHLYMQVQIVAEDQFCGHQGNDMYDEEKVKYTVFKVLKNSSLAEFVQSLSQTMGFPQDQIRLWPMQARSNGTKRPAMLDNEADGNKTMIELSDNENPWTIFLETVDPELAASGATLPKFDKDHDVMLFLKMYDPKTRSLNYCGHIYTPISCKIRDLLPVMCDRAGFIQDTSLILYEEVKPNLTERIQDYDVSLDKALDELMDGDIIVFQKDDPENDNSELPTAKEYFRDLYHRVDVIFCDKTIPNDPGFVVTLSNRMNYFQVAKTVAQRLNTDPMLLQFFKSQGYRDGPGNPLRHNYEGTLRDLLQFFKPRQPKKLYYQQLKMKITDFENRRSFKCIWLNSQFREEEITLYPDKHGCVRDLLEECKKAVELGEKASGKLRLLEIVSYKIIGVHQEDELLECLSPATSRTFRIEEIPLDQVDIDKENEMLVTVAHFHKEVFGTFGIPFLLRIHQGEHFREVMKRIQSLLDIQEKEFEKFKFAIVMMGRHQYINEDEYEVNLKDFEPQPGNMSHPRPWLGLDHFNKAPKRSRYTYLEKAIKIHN
T1 sequence (Q96FW1 whole entry, the tested form may be a part): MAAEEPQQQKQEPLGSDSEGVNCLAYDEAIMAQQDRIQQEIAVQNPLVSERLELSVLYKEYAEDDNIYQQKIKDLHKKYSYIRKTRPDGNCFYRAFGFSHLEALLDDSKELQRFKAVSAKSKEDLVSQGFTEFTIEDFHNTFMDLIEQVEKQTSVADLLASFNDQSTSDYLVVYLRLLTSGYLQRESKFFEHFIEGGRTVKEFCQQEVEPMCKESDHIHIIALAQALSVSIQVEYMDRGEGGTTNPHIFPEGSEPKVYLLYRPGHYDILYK
Ataxin-3, sequence (P54252 whole entry): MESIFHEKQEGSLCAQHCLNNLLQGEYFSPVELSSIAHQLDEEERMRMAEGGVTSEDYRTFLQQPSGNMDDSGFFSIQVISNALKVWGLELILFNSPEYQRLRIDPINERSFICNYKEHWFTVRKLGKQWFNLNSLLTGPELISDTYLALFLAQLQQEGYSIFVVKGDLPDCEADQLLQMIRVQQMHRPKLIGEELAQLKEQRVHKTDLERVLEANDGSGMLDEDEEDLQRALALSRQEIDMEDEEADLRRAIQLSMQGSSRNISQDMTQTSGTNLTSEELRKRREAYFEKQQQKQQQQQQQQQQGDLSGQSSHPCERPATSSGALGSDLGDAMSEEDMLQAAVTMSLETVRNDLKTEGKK

Row | ΔTm [1] [°C] | IC50 [2] [nM] | IC50 [4] [nM] | residual activity [5] [%] | residual activity [6] [%] | IC50 [7] [nM] | IC50 [9] [nM] | IC50 [10] [nM] | Compound | IC50 [3] [nM] | IC50 [8] [nM]
1 | 1 | 701 | 266 | 13.7 | 25 | 88 | > 10000 | > 10000 | CN1CC[C@@H](Oc2ccc(Cl)c(-c3nc4c(o3)C(=O)c3ccccc3C4=O)c2)C1 | 138 | > 10000
2 | 1 | 1260 | 423 | 7.4 | 20.5 | 121 | > 10000 | 7200 | CN1CC[C@@H](Oc2ccc(Cl)c(-c3nc4c(o3)C(=O)c3ccccc3C4=O)c2F)C1 | 176 | > 10000
3 | 1 | 662 | 281 | 18.2 | 32.2 | 98 | > 10000 | 3900 | O=C1c2ccccc2C(=O)c2oc(-c3cccnc3)nc21 | 122 | > 10000
4 | 2.5 | 1000 | 431 | 7.3 | 16.5 | 118 | > 10000 | 8400 | CN1CC[C@@H](Oc2ccc(F)c(-c3nc4c(o3)C(=O)c3ccccc3C4=O)c2Cl)C1 | 172 | > 10000
